One experiment concerns the target T1, human V2 receptor (Homo sapiens, UniProt P30518).
T1 construct: expressed in transfected cells; host or cells: CHO K1 (ATCC) expressing firefly luciferase under a CRE-responsive promoter
Put plainly: Cellular in vitro assay for determining vasopressin receptor activity, V2 receptor cell line (CRE-luciferase). It counts as cell-based. The conditions noted are these: CHO cell line transfected with the human V2 receptor; agonist [Arg8]-vasopressin at EC50 concentration; read-out: IC50 hV2.

In a further experiment the target is human V1a receptor (Homo sapiens, UniProt P37288). Put plainly: Cellular in vitro assay for determining vasopressin receptor activity, V1a receptor cell line (photoprotein luminescence). It counts as cell-based. The settings on record: for IC50: CHO cell line transfected with the human V1a receptor, agonist [Arg8]-vasopressin at EC50 concentration, read-out: IC50 hV1a; for ratio IC50 hV2/hV1a: selectivity ratio of the cellular IC50 values. The essentials:
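CHO K1 cells stably expressing human V1a receptor with aequorin photoprotein, loaded overnight with coelenterazine. Compounds preincubated 10 min at various concentrations, then challenged with [Arg^8]-vasopressin at EC50 concentration. Calcium-driven luminescence read immediately; IC50 values derived.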

The results in this text go back to patent publication US11331314B2, “Amine substituted triazole derivatives and uses thereof” (Bayer Pharma Aktiengesellschaft, priority 2017, dated 2022).

T1 sequence (P30518 whole entry): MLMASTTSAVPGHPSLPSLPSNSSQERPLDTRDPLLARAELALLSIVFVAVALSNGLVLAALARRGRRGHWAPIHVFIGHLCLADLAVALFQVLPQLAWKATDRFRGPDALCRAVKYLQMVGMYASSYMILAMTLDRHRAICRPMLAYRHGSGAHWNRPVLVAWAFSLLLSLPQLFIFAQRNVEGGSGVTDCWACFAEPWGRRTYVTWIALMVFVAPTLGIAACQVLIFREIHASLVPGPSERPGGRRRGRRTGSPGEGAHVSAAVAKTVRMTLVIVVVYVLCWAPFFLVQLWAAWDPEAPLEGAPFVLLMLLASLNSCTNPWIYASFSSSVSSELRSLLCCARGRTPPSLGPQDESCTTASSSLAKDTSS
human V1a receptor, sequence (P37288 whole entry): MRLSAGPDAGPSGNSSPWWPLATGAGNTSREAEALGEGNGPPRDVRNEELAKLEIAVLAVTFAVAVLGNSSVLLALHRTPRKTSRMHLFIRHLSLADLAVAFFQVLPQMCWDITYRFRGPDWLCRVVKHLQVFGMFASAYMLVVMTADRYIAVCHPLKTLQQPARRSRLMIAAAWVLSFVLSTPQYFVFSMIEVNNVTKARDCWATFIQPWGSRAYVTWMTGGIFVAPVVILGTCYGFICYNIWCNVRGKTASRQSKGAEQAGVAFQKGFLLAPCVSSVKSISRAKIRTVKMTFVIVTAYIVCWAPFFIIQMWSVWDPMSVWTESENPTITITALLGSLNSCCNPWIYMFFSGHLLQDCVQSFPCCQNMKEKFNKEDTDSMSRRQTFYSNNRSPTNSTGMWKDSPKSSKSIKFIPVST

Broadly, the IC50 is the concentration that gives 50% inhibition. Turning to `CCOC(=O)CNc1nc(Cn2nc(-c3ccc(Cl)cc3)n(C[C@H](O)C(F)(F)F)c2=O)nn1-c1cccc(Cl)c1` [Example 115, Ethyl N-[1-(3-chlorophenyl)-3-({3-(4-chlorophenyl)-5-oxo-4-[(2S)-3,3,3-trifluoro-2-hydroxypropyl]-4,5-dihydro-1H-1,2,4-triazol-1-yl}methyl)-1H-1,2,4-triazol-5-yl]glycinate], the IC50 at human V2 receptor is 2.07 nM. Besides, at human V1a receptor, the IC50 came out at 5.86 nM and the “ratio IC50 hV2/hV1a” value worked out at 0.4.

`COCCNc1nc(Cn2nc(-c3ccc(Cl)cc3)n(C[C@H](O)C(F)(F)F)c2=O)nn1-c1cccc(F)c1` [Example 116, 5-(4-Chlorophenyl)-2-({1-(3-fluorophenyl)-5-[(2-methoxyethyl)amino]-1H-1,2,4-triazol-3-yl}methyl)-4-[(2S)-3,3,3-trifluoro-2-hydroxypropyl]-2,4-dihydro-3H-1,2,4-triazol-3-one]: the IC50 on human V2 receptor stood at 1.98 nM. In addition, at human V1a receptor, the IC50 was 1.35 nM and the “ratio IC50 hV2/hV1a” value stood at 1.5.

As to `O=c1n(Cc2nc(N3CCCC3)n(-c3cccc(Cl)c3)n2)nc(-c2ccc(Cl)cc2)n1C[C@H](O)C(F)(F)F` [Example 117, 5-(4-Chlorophenyl)-2-{[1-(3-chlorophenyl)-5-(pyrrolidin-1-yl)-1H-1,2,4-triazol-3-yl]methyl}-4-[(2S)-3,3,3-trifluoro-2-hydroxypropyl]-2,4-dihydro-3H-1,2,4-triazol-3-one], the IC50 on human V2 receptor worked out at 19.2 nM; on human V1a receptor it was 66.5 nM. Moreover, the “ratio IC50 hV2/hV1a” value on human V1a receptor turned out to be 0.3.

`CNc1nc(Cn2nc(-c3ccc(Cl)cc3)n(C[C@H](O)C(F)(F)F)c2=O)nn1-c1cccc(Cl)c1` [Example 118, 5-(4-Chlorophenyl)-2-{[1-(3-chlorophenyl)-5-(methylamino)-1H-1,2,4-triazol-3-yl]methyl}-4-[(2S)-3,3,3-trifluoro-2-hydroxypropyl]-2,4-dihydro-3H-1,2,4-triazol-3-one]: on human V2 receptor, the IC50 amounted to 1.04 nM. At human V1a receptor, the IC50 was found to be 16.4 nM and the “ratio IC50 hV2/hV1a” value stood at 0.1.

Regarding `O=c1n(Cc2nc(N3CCOCC3)n(-c3cccc(F)c3)n2)nc(-c2ccc(Cl)cc2)n1C[C@H](O)C(F)(F)F` [Example 119, 5-(4-Chlorophenyl)-2-{[1-(3-fluorophenyl)-5-(morpholin-4-yl)-1H-1,2,4-triazol-3-yl]methyl}-4-[(2S)-3,3,3-trifluoro-2-hydroxypropyl]-2,4-dihydro-3H-1,2,4-triazol-3-one], the results for the IC50 on human V2 receptor and on human V1a receptor were 17.1 nM and 7.79 nM, respectively. Also, the “ratio IC50 hV2/hV1a” value on human V1a receptor is 2.2.

In the case of `CN(C)c1nc(Cn2nc(-c3ccc(Cl)cc3)n(C[C@H](O)C(F)(F)F)c2=O)nn1-c1cccc(F)c1` [Example 120, 5-(4-Chlorophenyl)-2-{[5-(dimethylamino)-1-(3-fluorophenyl)-1H-1,2,4-triazol-3-yl]methyl}-4-[(2S)-3,3,3-trifluoro-2-hydroxypropyl]-2,4-dihydro-3H-1,2,4-triazol-3-one], the IC50 on human V2 receptor turned out to be 8.19 nM. Also, on human V1a receptor, the IC50 turned out to be 4.66 nM and the “ratio IC50 hV2/hV1a” value is recorded as 1.8.

For the compound `O=c1n(Cc2nc(N3CCC3)n(-c3cccc(F)c3)n2)nc(-c2ccc(Cl)cc2)n1C[C@H](O)C(F)(F)F` [Example 121, 2-{[5-(Azetidin-1-yl)-1-(3-fluorophenyl)-1H-1,2,4-triazol-3-yl]methyl}-5-(4-chlorophenyl)-4-[(2S)-3,3,3-trifluoro-2-hydroxypropyl]-2,4-dihydro-3H-1,2,4-triazol-3-one], the IC50 at human V2 receptor is 6.12 nM. Moreover, on human V1a receptor, the IC50 is 6.4 nM and the “ratio IC50 hV2/hV1a” value is on record as 1.0.

`CC1(C)CN(c2nc(Cn3nc(-c4ccc(Cl)cc4)n(C[C@H](O)C(F)(F)F)c3=O)nn2-c2ncccc2Cl)CCN1` [Example 122, 5-(4-Chlorophenyl)-2-{[1-(3-chloropyridin-2-yl)-5-(3,3-dimethylpiperazin-1-yl)-1H-1,2,4-triazol-3-yl]methyl}-4-[(2S)-3,3,3-trifluoro-2-hydroxypropyl]-2,4-dihydro-3H-1,2,4-triazol-3-one]: the IC50 on human V2 receptor came out at 1550 nM. At human V1a receptor, the IC50 turned out to be 0.97 nM and the “ratio IC50 hV2/hV1a” value was 1606.2.

Regarding `O=c1n(Cc2nc(NCCO)n(-c3cccc(F)c3)n2)nc(-c2ccc(Cl)cc2)n1C[C@H](O)C(F)(F)F` [Example 123, 5-(4-Chlorophenyl)-2-({1-(3-fluorophenyl)-5-[(2-hydroxyethyl)amino]-1H-1,2,4-triazol-3-yl}methyl)-4-[(2S)-3,3,3-trifluoro-2-hydroxypropyl]-2,4-dihydro-3H-1,2,4-triazol-3-one], the IC50 on human V2 receptor is 4.59 nM. On human V1a receptor, the IC50 was determined as 2.15 nM and the “ratio IC50 hV2/hV1a” value was found to be 2.1.
